One compound from patent publication US20250123280A1, “LABEL-FREE DETECTION OF PROTEASE ACTIVITY” (OREGON HEALTH & SCIENCE UNIVERSITY, priority 2021, published 2025) can be followed below.

One series has as its target T1, legumain (Mus musculus, UniProt O89017).
T1 construct: purchased Novus Biologicals
T1 sequence (O89017 18-325 limits assumed): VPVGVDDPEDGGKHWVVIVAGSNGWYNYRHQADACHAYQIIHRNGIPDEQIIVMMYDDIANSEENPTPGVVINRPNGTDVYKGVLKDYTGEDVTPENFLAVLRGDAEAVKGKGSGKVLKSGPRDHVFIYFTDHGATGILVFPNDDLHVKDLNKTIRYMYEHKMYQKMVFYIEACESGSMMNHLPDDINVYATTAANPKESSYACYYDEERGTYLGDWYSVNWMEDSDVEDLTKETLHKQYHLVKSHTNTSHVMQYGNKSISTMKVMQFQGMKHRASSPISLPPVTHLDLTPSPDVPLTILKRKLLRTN
As to the kind of experiment: Legumain activity detection in human plasma (peptide 1/ThT). It is filed as biochemical. The method, then:
In the peptide concentration experiment, appropriate amounts of peptide 1 stock solution (10 mg/mL) were diluted in PBS and mixed with the MES buffer containing legumain, as described above, to give the final peptide concentrations between 0.05 and 1 mg/mL in the assay. In kinetic studies, ThT solution was mixed with the peptide immediately before the addition of activated legumain, and the plate was incubated in a Spark 20M microplate reader (Tecan) at 37° C. for 3 hours, and ThT fluorescence was recorded every 4 minutes. For the inhibitor experiment, the legumain inhibitor, RR-11a, was first dissolved in DMSO (1 mM), and appropriate amounts of inhibitor were incubated with legumain for about 1.0 hour at room temperature in 96 well plates. Finally, the legumain solutions incubated with different amounts of inhibitor were mixed with the peptide 1 solution, and the assay was performed as described above. […]
To assess the possibility of using the developed self-assembling polypeptides and methods in complex biological environments, legumain detection experiments in human plasma were performed. In initial studies, a background fluorescence signal in plasma (20%) was detected due to the nonspecific interactions between ThT and plasma proteins (see FIG. 24A) (Rovnyagina, N. R. et al., Binding of Thioflavin T by Albumins: An Underestimated Role of Protein Oligomeric Heterogeneity. Int. J. Biol. Macromol. 2018, 108, 284-290). While this background signal was relatively strong, the incubation of peptide 1 in legumain (1000 ng/mL) spiked plasma still produced a detectable fluorescence enhancement (about 2.5 fold) after the addition of ThT (90 μM). […]
Having a better understanding of the assay's background fluorescence, further studies were performed to optimize the assay performance in plasma. To reduce the background fluorescence, the assay was run in plasma using lower ThT concentrations (see FIGS. 26A and 26B). […] In the optimized assay conditions, a fluorescence enhancement of about 20 fold was obtained in 10% plasma at the legumain concentration of 1000 ng/mL as shown in FIG. 12A. […]

Series [1] is described as follows: CD time-course of structures formed by peptide 1 with legumain. It is filed as physicochemical. As to conditions: after two weeks with legumain, 37° C. How it is done: A time-course study of the legumain assay was also run. Peptide 1 was dissolved at 0.333 mg/mL in low far-UV absorbance CD buffer, pH 5.5-6. Legumain was activated for abut 2 hours at 37° C. in far-UV absorbance CD buffer, pH 4. Spectra were acquired from 260-190 nm with 1.0 nm band-width, 20 nm/min scan speed, and 2 sec integration time. A 5 minute acquisition cycle was automatically run 26 times, followed by manual acquisitions at 28 hours, 53 hours, 78 hours, and 14 days. The temperature was maintained at 37° C. throughout. Legumain (333 ng/mL) was mixed with peptide 1 just prior to acquisition of the second spectrum (the 0 min time point). All spectra were subsequently background subtracted and then smoothed using a Savitsky-Golay filter. Data are presented in units of molar circular dichroism, Δε(M^−1 cm^−1).

Series [2] in a line: Solubility in aqueous solutions. Type of series: physicochemical.

Peptide text beside a SMILES is read from it. * marks the point of attachment. Fmoc = O=C(OCC1c2ccccc2-c2ccccc21)*

Consider `C[C@H](NC(=O)[C@H](C)NC(=O)[C@H](CCC(=O)O)NC(=O)[C@H](Cc1ccccc1)NC(=O)[C@H](CCCCN)NC(=O)[C@H](Cc1ccccc1)NC(=O)OCC1c2ccccc2-c2ccccc21)C(=O)N[C@@H](CC(N)=O)C(=O)NCC(=O)N[C@@H](CCC(=O)O)C(=O)N[C@@H](CCC(=O)O)C(=O)NCC(=O)N[C@@H](CO)C(=O)NCC(=O)N[C@@H](CCC(=O)O)C(=O)N[C@@H](CCC(=O)O)C(=O)O` [peptide 1] (Fmoc-FKFEAANGEEGSGEE-OH; C-terminus assumed), for which the fluorescence enhancement result on legumain (10% plasma, ThT 25 μM, legumain 1000 ng/mL) is reported as “about 20 fold”; at legumain (20% plasma spiked with legumain 1000 ng/mL, ThT 90 μM) it was “about 2.5 fold”. In addition, the “ON/OFF ratio of the assay” value at legumain (albumin depleted 20% plasma) was “about 10”. Further, the “stability of the formed structures (CD spectrum)” value in series [1] is “long-term stability”. Besides, the “solubility in aqueous solutions” value in series [2] was “good solubility”.
